For 18 compounds, Ratio and IC50 results are on record in ChEMBL document CHEMBL1152321, “Recent advances in the chemistry and biology of new generation taxoids” (J Nat Prod, 2009).

Each structure is given as a SMILES string. pIC50: −log10 of the molar value.

The subject of test [1] is MCF7. The test is described as follows: Resistance factor, ratio of IC50 for human MCF7 cells expressing P-glycoprotein to IC50 for P-glycoprotein deficient wild type human MCF7 cells. Type of test: functional.
Test [2] concerns MCF7. The test is described as follows: Cytotoxicity against human MCF7 cells expressing P-glycoprotein after 72 hrs. Format: functional, cell-based. To be noted: MCF7, 72 h.
Test [3] concerns MCF7. The test is described as follows: Cytotoxicity against P-glycoprotein deficient wild type human MCF7 cells after 72 hrs. Format: functional, cell-based. To be noted: MCF7, 72 h.
The nature of test [4]: Resistance factor, ratio of IC50 for human LCC-6 cells expressing P-glycoprotein to IC50 for P-glycoprotein deficient wild type human LCC-6 cells. Format: functional. Set-up: reference not given here.
Test [5] can be described thus: Cytotoxicity against P-glycoprotein deficient wild type human LCC-6 cells after 72 hrs. Type of test: functional, cell-based. To be noted: LCC-6, 72 h.
A further test deals with HT-29. The test is described as follows: Cytotoxicity against human HT-29 cells after 72 hrs. Format: functional, cell-based. To be noted: HT-29, 72 h.
In a further test the test system is NCI-H460. The test is described as follows: Cytotoxicity against human H460 cells after 72 hrs. Type of test: functional, cell-based. To be noted: NCI-H460, 72 h.
Test [6] is described as follows: Cytotoxicity against human LCC-6 cells expressing P-glycoprotein after 72 hrs. Type of test: functional, cell-based. To be noted: LCC-6, 72 h.

What is called pIC50 is the IC50 on a negative log10 scale, so that one unit is a factor of ten.

On to `CCC(=O)O[C@H]1C(=O)[C@@]2(C)[C@H]([C@H](OC(=O)c3cccc(Cl)c3)[C@]3(O)C[C@H](OC(=O)[C@H](O)[C@@H](NC(=O)OC(C)(C)C)C(F)F)C(C)=C1C3(C)C)[C@]1(OC(C)=O)CO[C@@H]1C[C@@H]2O`, for which the Ratio was 12 in the test with MCF7 [1] and 9.1 in test [4]. Also, the pIC50 in the test on MCF7 [2] is 8.28; in the test on MCF7 [3], 9.36; in test [5], 9.28; with HT-29, 9.37; in the test on NCI-H460, 9.52; in test [6] it was 8.33.
On to `COC(=O)O[C@H]1C(=O)[C@@]2(C)[C@H]([C@H](OC(=O)c3cccc(Cl)c3)[C@]3(O)C[C@H](OC(=O)[C@H](O)[C@@H](NC(=O)OC(C)(C)C)C(F)(F)F)C(C)=C1C3(C)C)[C@]1(OC(C)=O)CO[C@@H]1C[C@@H]2O`, for which the Ratio is 7.3 with MCF7 [1] and 18 in test [4]. Further, the pIC50 is 8.33 in the test with MCF7 [2]; 9.19 in the test with MCF7 [3]; 9.54 in test [5]; 9.17 with HT-29; 9.37 with NCI-H460; 8.29 in test [6].
In the case of `CC(=O)O[C@H]1C(=O)[C@@]2(C)[C@H]([C@H](OC(=O)c3cccc(Cl)c3)[C@]3(O)C[C@H](OC(=O)[C@H](O)[C@@H](NC(=O)OC(C)(C)C)C(F)(F)F)C(C)=C1C3(C)C)[C@]1(OC(C)=O)CO[C@@H]1C[C@@H]2O`, the values for the Ratio (in the test on MCF7 [1]; in test [4]) were 13 and 23, respectively. The negative logarithm of the IC50 (pIC50) in the test on MCF7 [2] is 8.30; with MCF7 [3], 9.40; in test [5], 9.66; in the test with HT-29 it was 9.07; in the test on NCI-H460, 9.30; in test [6] it was 8.30.
For `COc1cccc(C(=O)O[C@H]2[C@@H]3[C@]4(OC(C)=O)CO[C@@H]4C[C@H](O)[C@@]3(C)C(=O)[C@H](OC(C)=O)C3=C(C)[C@@H](OC(=O)[C@H](O)[C@@H](NC(=O)OC(C)(C)C)C(F)F)C[C@]2(O)C3(C)C)c1`, the Ratio came out at 12 in the test on MCF7 [1] and 21 in test [4]. Further, the pIC50 with MCF7 [2] was 8.38; in the test on MCF7 [3], 9.47; in test [5], 9.59; in the test on HT-29, 9.28; with NCI-H460, 9.42; in test [6], 8.25.
As to `CCC(=O)O[C@H]1C(=O)[C@@]2(C)[C@H]([C@H](OC(=O)c3cccc(N=[N+]=[N-])c3)[C@]3(O)C[C@H](OC(=O)[C@H](O)[C@@H](NC(=O)OC(C)(C)C)C(F)F)C(C)=C1C3(C)C)[C@]1(OC(C)=O)CO[C@@H]1C[C@@H]2O`, the Ratio is given as 3 in the test with MCF7 [1] and 2.9 in test [4]. In addition, the pIC50 in the test with MCF7 [2] was 9.02; in the test with MCF7 [3], 9.49; in test [5] it was 9.41; with HT-29 it was 9.43; in the test with NCI-H460, 9.57; in test [6], 8.94.
In the case of `COC(=O)O[C@H]1C(=O)[C@@]2(C)[C@H]([C@H](OC(=O)c3cccc(OC)c3)[C@]3(O)C[C@H](OC(=O)[C@H](O)[C@@H](NC(=O)OC(C)(C)C)C(F)(F)F)C(C)=C1C3(C)C)[C@]1(OC(C)=O)CO[C@@H]1C[C@@H]2O`, the figures for the Ratio (in the test on MCF7 [1]; in test [4]) were 17 and 15, respectively. In addition, the pIC50 with MCF7 [2] is 8.54; in the test with MCF7 [3], 9.77; in test [5] it was 9.57; with HT-29, 9.28; with NCI-H460, 9.42; in test [6], 8.40.
`CC(=O)O[C@H]1C(=O)[C@@]2(C)[C@H]([C@H](OC(=O)c3cccc(F)c3)[C@]3(O)C[C@H](OC(=O)[C@H](O)[C@@H](NC(=O)OC(C)(C)C)C(F)F)C(C)=C1C3(C)C)[C@]1(OC(C)=O)CO[C@@H]1C[C@@H]2O`: the Ratio is listed as 13 with MCF7 [1] and 19 in test [4]. Further, the pIC50 is 8.27 in the test on MCF7 [2]; 9.36 with MCF7 [3]; 9.28 in test [5]; 9.46 with HT-29; 9.70 in the test with NCI-H460; 8.00 in test [6].
For the compound `CC(=O)O[C@@]12CO[C@@H]1C[C@H](O)[C@@]1(C)C(=O)[C@H](OC(=O)N(C)C)C3=C(C)[C@@H](OC(=O)[C@H](O)[C@@H](NC(=O)OC(C)(C)C)C(F)(F)F)C[C@@](O)([C@@H](OC(=O)c4cccc(F)c4)[C@H]21)C3(C)C`, the Ratio came to 8.3 with MCF7 [1] and 17 in test [4]. Further, the pIC50 in the test with MCF7 [2] is 8.58; in the test with MCF7 [3], 9.49; in test [5], 9.49; with HT-29, 9.12; with NCI-H460 it was 9.30; in test [6] it was 8.25.
As to `CCC(=O)O[C@H]1C(=O)[C@@]2(C)[C@H]([C@H](OC(=O)c3cccc(F)c3)[C@]3(O)C[C@H](OC(=O)[C@H](O)[C@@H](NC(=O)OC(C)(C)C)C(F)(F)F)C(C)=C1C3(C)C)[C@]1(OC(C)=O)CO[C@@H]1C[C@@H]2O`, the Ratio is on record as 5.6 in the test on MCF7 [1] and 5.2 in test [4]. For the same compound, the negative logarithm of the IC50 (pIC50) in the test on MCF7 [2] is 8.42; in the test on MCF7 [3] it was 9.17; in test [5], 9.09; with HT-29, 8.94; in the test with NCI-H460 it was 9.23; in test [6], 8.37.
`CC(=O)O[C@@]12CO[C@@H]1C[C@H](O)[C@@]1(C)C(=O)[C@H](OC(=O)N(C)C)C3=C(C)[C@@H](OC(=O)[C@H](O)[C@@H](NC(=O)OC(C)(C)C)C(F)(F)F)C[C@@](O)([C@@H](OC(=O)c4cccc(Cl)c4)[C@H]21)C3(C)C`: the Ratio with MCF7 [1] is 8.5; in test [4], 9.4. Besides, the pIC50 in the test on MCF7 [2] is 8.99; in the test with MCF7 [3] it was 9.92; in test [5], 9.57; with HT-29, 9.35; in the test with NCI-H460, 9.38; in test [6] it was 8.59.
Consider `CCC(=O)O[C@H]1C(=O)[C@@]2(C)[C@H]([C@H](OC(=O)c3cccc(OC)c3)[C@]3(O)C[C@H](OC(=O)[C@H](O)[C@@H](NC(=O)OC(C)(C)C)C(F)(F)F)C(C)=C1C3(C)C)[C@]1(OC(C)=O)CO[C@@H]1C[C@@H]2O`, for which the Ratio in the test on MCF7 [1] turned out to be 11; in test [4], 9. The pIC50 with MCF7 [2] was 8.67; in the test with MCF7 [3] it was 9.72; in test [5], 9.35; with HT-29, 9.27; with NCI-H460, 9.39; in test [6], 8.37.
As for `CC(=O)O[C@@]12CO[C@@H]1C[C@H](O)[C@@]1(C)C(=O)[C@H](OC(=O)N(C)C)C3=C(C)[C@@H](OC(=O)[C@H](O)[C@@H](NC(=O)OC(C)(C)C)C(F)F)C[C@@](O)([C@@H](OC(=O)c4cccc(Cl)c4)[C@H]21)C3(C)C`, the Ratio came out at 9.5 in the test with MCF7 [1] and 18 in test [4]. Besides, the pIC50 in the test on MCF7 [2] is 8.53; in the test with MCF7 [3], 9.51; in test [5], 9.68; in the test on HT-29, 9.24; in the test on NCI-H460 it was 9.44; in test [6], 8.41.
For the compound `CCC(=O)O[C@H]1C(=O)[C@@]2(C)[C@H]([C@H](OC(=O)c3cccc(OC)c3)[C@]3(O)C[C@H](OC(=O)[C@H](O)[C@@H](NC(=O)OC(C)(C)C)C(F)F)C(C)=C1C3(C)C)[C@]1(OC(C)=O)CO[C@@H]1C[C@@H]2O`, the pIC50 with MCF7 [2] is 8.39; with MCF7 [3], 8.94; in test [5], 9.16; in the test on HT-29 it was 9.23; in the test on NCI-H460 it was 9.40.
Turning to `COc1cccc(C(=O)O[C@H]2[C@@H]3[C@]4(OC(C)=O)CO[C@@H]4C[C@H](O)[C@@]3(C)C(=O)[C@H](OC(=O)N(C)C)C3=C(C)[C@@H](OC(=O)[C@H](O)[C@@H](NC(=O)OC(C)(C)C)C(F)F)C[C@]2(O)C3(C)C)c1`, the Ratio (with MCF7 [1]; in test [4]) was 10 throughout. Moreover, the pIC50 is 8.35 in the test with MCF7 [2]; 9.35 in the test on MCF7 [3]; 9.16 in test [5]; 9.37 in the test with HT-29; 9.40 with NCI-H460; 8.15 in test [6].
Take `COc1cccc(C(=O)O[C@H]2[C@@H]3[C@]4(OC(C)=O)CO[C@@H]4C[C@H](O)[C@@]3(C)C(=O)[C@H](OC(C)=O)C3=C(C)[C@@H](OC(=O)[C@H](O)[C@@H](NC(=O)OC(C)(C)C)C(F)(F)F)C[C@]2(O)C3(C)C)c1`: the Ratio in the test on MCF7 [1] is recorded as 28; in test [4] it was 12. The pIC50 in the test on MCF7 [2] was 8.06; with MCF7 [3] it was 9.49; in test [5], 9.48; in the test on HT-29, 9.16; in the test with NCI-H460, 9.42; in test [6], 8.40.
On to `CC(=O)O[C@H]1C(=O)[C@@]2(C)[C@H]([C@H](OC(=O)c3cccc(F)c3)[C@]3(O)C[C@H](OC(=O)[C@H](O)[C@@H](NC(=O)OC(C)(C)C)C(F)(F)F)C(C)=C1C3(C)C)[C@]1(OC(C)=O)CO[C@@H]1C[C@@H]2O`, for which the results for the Ratio (in the test with MCF7 [1]; in test [4]) were 13 and 16, respectively. Further, the pIC50 is 8.25 with MCF7 [2]; 9.35 in the test on MCF7 [3]; 9.42 in test [5]; 8.95 with HT-29; 9.31 with NCI-H460; 8.23 in test [6].
Turning to `COC(=O)O[C@H]1C(=O)[C@@]2(C)[C@H]([C@H](OC(=O)c3cccc(N=[N+]=[N-])c3)[C@]3(O)C[C@H](OC(=O)[C@H](O)[C@H](C=C(F)F)NC(=O)OC(C)(C)C)C(C)=C1C3(C)C)[C@]1(OC(C)=O)CO[C@@H]1C[C@@H]2O`, the Ratio in the test with MCF7 [1] was determined as 5.3. Also, the pIC50 in the test with MCF7 [2] is 9.40; in the test with MCF7 [3], 10.11.
On the same counts, the results for `CCC(=O)O[C@H]1C(=O)[C@@]2(C)[C@H]([C@H](OC(=O)c3cccc(OC)c3)[C@]3(O)C[C@H](OC(=O)[C@H](O)[C@H](C=C(F)F)NC(=O)OC(C)(C)C)C(C)=C1C3(C)C)[C@]1(OC(C)=O)CO[C@@H]1C[C@@H]2O` are 1.7, 9.24 and 9.47.
